These results are taken from patent US6716968B2, “Apoptosis-related compounds and their use” (Peviva AB, priority 1997, dated 2004).

Ends that are not written are not given here.

The test system of the first assay is monoclonal antibody M30. Nature of the assay: ELISA reactivity of synthetic peptides with monoclonal antibody M30. Format: binding, mouse. To be noted: SEQ ID NO: 1 set at 100. The text has this: These peptides having the amino acid sequences SEQ ID NO: 2 and 3 have been synthesized, and in an ELISA they bind to the mAb M 30 [relative activity: 100 for SEQ ID NO: 1; 11 for SEQ ID NO: 2; and 8.3 for SEQ ID NO: 3, respectively]. However, these two peptides are not expected to represent cleaved fragments of CK18 specific for apoptosis, since the mAb M 30 cannot bind to CK18 fragments until they expose the neo-epitope having the C-terminal sequence Ala Leu Asp.
The oligopeptides made in order to illustrate the invention were synthesized using the multipin peptide synthesis approach using polyethylene supports derivatized with an acid handle (Cf. Valerio, R. M., Bray, A. M. and Maeji, N. J. (1994) Multiple peptide synthesis on acid-labile handle derivatized polyethylene supports. Int. J. Peptide Protein Res. 44:158-165.). The synthesis was carried out on detachable pins grafted with hydroxyethylmethacrylate and functionalized with the trifluoroacetic acid-labile Rink amide forming handle. Peptides representing both the N and C terminal truncation series of the sequence EDFNLGDALD (SEQ ID NO:1) and other sequences were synthesized. Peptides were capped with biotin using the tetra peptide linker sequence—SGSG- or —SGSB- (B=βalanine), and attached to streptavidin coated plates in the enzyme-linked immunosorbent assay.
In order to characterize the MAb M30-epitope chemically, the M30was tested against a large number of synthetic peptides, that were especially made for this purpose.
(In general: ELISA stands for enzyme-linked immunosorbent assay.)
With LEDGEDFNLGDALDSSNS [SEQ ID NO: 3], the “relative activity (binding to mAb M 30 in ELISA)” value (“relative activity” below) worked out at 8.3.

Turning to EDGEDFNLGDALDSSNSMQT [SEQ ID NO: 2], the “relative activity” value is 11.

Take EDFNLGDALD [SEQ ID NO: 1]: the “relative activity” value is 100.

The same assay, now with this note: biotin-capped peptide attached to streptavidin coated plates, ELISA with MAb M30.
On to “DFNLGDALD (OTHER INFORMATION: Description of Artificial Sequence: epitope from mammalian protein) [Peptide 401]”, for which the “Absorbance at 405/492 nm” value was 0.62.

Regarding “LEDGEDFNLGDALDS (OTHER INFORMATION: Description of Artificial Sequence: epitope from mammalian protein) [Peptide 61]”, the “Absorbance at 405/492 nm” value is listed as 0.1.

As for “FNLGDALD (OTHER INFORMATION: Description of Artificial Sequence: epitope from mammalian protein) [Peptide 402]”, the “Absorbance at 405/492 nm” value is 0.27.

In the case of “GDALD (OTHER INFORMATION: Description of Artificial Sequence: epitope from mammalian protein) [Peptide 405]”, the “Absorbance at 405/492 nm” value is reported as 0.1.

With “GEDFNLGDALD [302] (OTHER INFORMATION: Description of Artificial Sequence: epitope from mammalian protein) [Peptide 302]”, the “Absorbance at 405/492 nm” value is given as 1.41.

Consider “GEDFNLGDALD [47] (OTHER INFORMATION: Description of Artificial Sequence: epitope from mammalian protein) [Peptide 47]”, for which the “Absorbance at 405/492 nm” value was found to be 1.23.

For “EDFNLGDALD (OTHER INFORMATION: Description of Artificial Sequence: epitope from mammalian protein) [Peptide 301]”, the “Absorbance at 405/492 nm” value is given as 1.46.

As to “DALD (OTHER INFORMATION: Description of Artificial Sequence: epitope from mammalian protein) [Peptide 406]”, the “Absorbance at 405/492 nm” value is 0.1.

For the substance “EDGEDFNLGDALD (OTHER INFORMATION: Description of Artificial Sequence: epitope from mammalian protein) [Peptide 45]”, the “Absorbance at 405/492 nm” value was 1.05.

With “LEDGEDFNLGDAL (OTHER INFORMATION: Description of Artificial Sequence: epitope from mammalian protein) [Peptide 63]”, the “Absorbance at 405/492 nm” value is 0.05.

Take “DGEDFNLGDALD (OTHER INFORMATION: Description of Artificial Sequence: epitope from mammalian protein) [Peptide 46]”: the “Absorbance at 405/492 nm” value is given as 0.77.

“LGDALD (OTHER INFORMATION: Description of Artificial Sequence: epitope from mammalian protein) [Peptide 404]”: the “Absorbance at 405/492 nm” value amounted to 0.1.

For the substance “NLGDALD (OTHER INFORMATION: Description of Artificial Sequence: epitope from mammalian protein) [Peptide 403]”, the “Absorbance at 405/492 nm” value came out at 0.14.

Still in this assay, the particulars now being: truncation series of Table 1.
Take EDFNLGDALD [SEQ ID NO: 1]: the “activity (reactivity with MAb M30) in words” value is given as “maximal activity”.
